Literature values as cited in patent US20080044486A1, “Controlled Food Effect Composition” (priority 2003, published 2008).

Assays:
[1] = oral, conventional pharmaceutical composition

SMILES | Food effect in a conventional composition (references) [1] | LogP
CC(=O)Oc1ccccc1C(=O)O [Acetylsalicylic acid] | Delayed absorption and reduced | –
COc1cc(C)c(/C=C/C(C)=C/C=C/C(C)=C/C(=O)O)c(C)c1C [Acitretin] | Increased absorption (2, 4) | 6.4
CCCCc1oc2ccccc2c1C(=O)c1cc(I)c(OCCN(CC)CC)c(I)c1 [Amiodarone] | Increased absorption (3) | –
CO[C@H]1O[C@@H]2O[C@@]3(C)CC[C@H]4[C@H](C)CC[C@@H]([C@H]1C)[C@@]24OO3 [Artemether] | High-fat food gives increased | 3.5
O=C1C(O)=C([C@H]2CC[C@H](c3ccc(Cl)cc3)CC2)C(=O)c2ccccc21 [Atovaquone] | High-fat food gives increased | 4.9
CC(C)/N=c1\cc2n(-c3ccc(Cl)cc3)c3ccccc3nc-2cc1Nc1ccc(Cl)cc1 [Clofazimine] | Increased absorption (2, 4) | –
C#C[C@]1(O)CC[C@H]2[C@@H]3CCC4=Cc5oncc5C[C@]4(C)[C@H]3CC[C@@]21C [Danazol] | – | 4.3
CCOC(=O)/C=C(C)/C=C/C=C(C)/C=C/c1c(C)cc(OC)c(C)c1C [Etretinate] | – | 6.6
CCOC(=O)C1=C(C)NC(C)=C(C(=O)OC)C1c1cccc(Cl)c1Cl (stereo not shown) [Felodipine] | High-fat food gives increased | –
CC1=C(/C=C/C(C)=C/C=C/C(C)=C/C(=O)Nc2ccc(O)cc2)C(C)(C)CCC1 [Fenretinide] | High-fat food gives increased | 6.1
CC1=C(/C=C/C(C)=C/C=C/C(C)=C\C(=O)O)C(C)(C)CCC1 [Isotretinoin] | Increased absorption (7) | –
CCC(C)n1ncn(-c2ccc(N3CCN(c4ccc(OCC5COC(Cn6cncn6)(c6ccc(Cl)cc6Cl)O5)cc4)CC3)cc2)c1=O (stereo not shown) [Itraconazole] | Increased but delayed absorption | 5.7
CCOC(=O)N1CCC(=C2c3ccc(Cl)cc3CCc3cccnc32)CC1 [Loratadine] | Increased but delayed absorption | –
CCCCN(CCCC)CC(O)c1cc(Cl)cc2c1-c1ccc(Cl)cc1/C2=C/c1ccc(Cl)cc1 (stereo not shown) [Lumefantrine] | High-fat food gives increased | 8.9
COC(=O)C1=C(C)NC(C)=C(C(=O)OCCN2CCN(C(c3ccccc3)c3ccccc3)CC2)C1c1cccc([N+](=O)[O-])c1 (stereo not shown) [Manidipine] | Increased absorption (2) | 4.1
Cc1c(-c2cnccn2)ssc1=S [Oltipraz] | Increased absorption (6) | 1.7
O=C(c1ccc(OCCN2CCCCC2)cc1)c1c(-c2ccc(O)cc2)sc2cc(O)ccc12 [Raloxifene] | – | 5.5
NC(=O)c1ncn([C@@H]2O[C@H](CO)[C@@H](O)[C@H]2O)n1 [Ribavirin] | High-fat food gives increased | −1.9
CC(C)c1nc(CN(C)C(=O)N[C@H](C(=O)N[C@@H](Cc2ccccc2)C[C@H](O)[C@H](Cc2ccccc2)NC(=O)OCc2cncs2)C(C)C)cs1 [Ritonavir] | Increased absorption (1, 4, 5) | –
NC(=O)c1cn(Cc2c(F)cccc2F)nn1 [Rufinamide] | – | 0.8
CC(C)(C)NC(=O)[C@@H]1C[C@@H]2CCCC[C@@H]2CN1C[C@@H](O)[C@H](Cc1ccccc1)NC(=O)[C@H](CC(N)=O)NC(=O)c1ccc2ccccc2n1 [Saquinavir] | – | 3.8
CO[C@H]1C[C@@H]2CC[C@@H](C)[C@@](O)(O2)C(=O)C(=O)N2CCCC[C@H]2C(=O)O[C@H]([C@H](C)C[C@@H]2CC[C@@H](O)[C@H](OC)C2)CC(=O)[C@H](C)/C=C(\C)[C@@H](O)[C@@H](OC)C(=O)[C@H](C)C[C@H](C)/C=C/C=C/C=C/1C [Sirolimus] | High-fat food gives increased | 5.3
CC(=O)S[C@@H]1CC2=CC(=O)CC[C@]2(C)[C@H]2CC[C@@]3(C)[C@@H](CC[C@@]34CCC(=O)O4)[C@H]12 [Spironolactone] | Increased absorption and reduced | 2.8
CC(C)OC(=O)OCOP(=O)(CO[C@H](C)Cn1cnc2c(N)ncnc21)OCOC(=O)OC(C)C [Tenofovir disoproxil] | High-fat food gives increased | 0.6
CCCC(CCC)C(=O)O [Valproic acid] | Delayed absorption and reduced | –
